# Experimental data from patent publication US12702657B2, “Treatment and prevention of dengue disease” (Janssen Pharmaceuticals, Inc., priority 2019, dated 2026).
# How the values were obtained:
# [1] = tested on: DENV 1/45AZ5; experiment: Antiviral activity against DENV 1/45AZ5 in non-human primates, prophylactic setting; format: in vivo, rhesus monkeys (Macaca mulatta); conditions: 6 mg/kg q.d. oral, day -3 to day 10, follow-up to day 28 post infection
# Method: The antiviral activity of compound (a) DENV in a prophylactic setting was assessed in rhesus monkeys (Macaca mulatta) infected with strain DENV 1/45AZ5. Oral dosing of compound (a) (6 mg/kg) was started 3 days before infection with DENV (day −3) and continued with daily dosing until 10 days post infection. On day 0, the animals were intradermally inoculated with 0.5 mL of DENV 1/45AZ5 (1.2×105 plaque-forming units [PFU/mL]). Animals were followed up until day 28 post infection (FIG. 13 X).
# The rhesus monkeys were divided in 2 groups representing the following treatment regimens: • (i) Vehicle 100% PEG400 (n=6) • (ii) Group 1: 6 mg/kg/dose, q.d. (n=6),
# [2] = tested on: DENV-2/16681; experiment: Pre-exposure prophylaxis in non-human primate model against DENV-2/16681; format: in vivo, rhesus monkeys (Macaca mulatta); conditions: for reduction in median peak DENV RNA compared with vehicle, significance / median reduction in DENV peak RNA levels compared with vehicle control: Bayesian nonlinear dose-response model; for onset of DENV RNA and peak RNA / DENV RNA throughout the study period (up to day 28): day -1 to day 10; for onset of DENV RNA and peak RNA: in some animals; for median reduction in DENV peak RNA levels compared with vehicle control: estimated
# Method: Compound (a) was tested in a non-human primate (NHP) model against DENV-2/16681. The setup of the experiment was designed as a pre-exposure prophylaxis (PreP) study. Oral administration of compound (a) started one day before experimental infection (day −1) and continued with daily administrations until 10 days post-infection. On day 0, the animals were infected by intradermal inoculation with 100 TCID50 of DENV-2/16681 virus in a total volume of 0.1 mL (FIG. 11).
# The rhesus monkeys were divided in 7 groups representing the following treatment regimens: • (i) Vehicle 100% PEG400 (n=5) • (ii) Group 1: 0.01 mg/kg/dose, q.d. (n=3), • (iii) Group 2: 0.18 mg/kg/dose, q.d. (n=3), • (iv) Group 3: 3 mg/kg/dose, q.d. (n=3), • (v) Group 4: 0.024 mg/kg/dose, q.d. (n=4), • (vi) Group 5: 0.09 mg/kg/dose, q.d. (n=4), • (vii) Group 6: 0.93 mg mg/kg/dose, q.d. (n=4).
# The antiviral activity of compound (a) in a prophylactic setting is being assessed in DENV-2/16681 infected rhesus monkeys (Macaca mulatta). Blood samples were taken on a daily basis from day 0 until day 11, and on day 14 and day 28. DENV RNA was measured using real-time qPCR as described by Santiago et al. (2013). Results from compound (a) doses of 0.01, 0.024, 0.09, 0.18, 0.93 and 3 mg/kg, administered once daily from day 1 before infection until day 10 post infection, are shown in FIGS. 12A and B.
# Based on a Bayesian nonlinear dose-response statistical model, the peak viral load reduction compared with vehicle was estimated for each dose group. […] A dose dependent median reduction in DENV peak RNA levels of 0.78, 1.91, 4.73 and 6.76 log10 genome copy equivalents (GCE) per milliliter (GCE/mL) plasma compared with vehicle control was estimated with the 0.09, 0.18, 0.93 and 3 mg/kg doses, respectively (Table 1).
# [3] = tested on: DENV-2/Rega lab strain; experiment: AG129 mouse model, low viral input (10^2 PFU), PrEP, post-exposure prophylaxis and treatment (delayed treatment start); format: in vivo, AG129 mice; conditions: 30 mg/kg/dose b.i.d.; for viral load at viral rebound: start 2 days after infection (group 4)
# Method: AG129 mice, age- and sex-matched (6 to 9 weeks of age), were used to assess the activity of compound (b) on viral RNA levels in the serum of the mice. The animals were infected intraperitoneally (i.p.) with 1×10^2 PFU DENV-2/Rega lab strain and treated for five consecutive days with compound (b) which was administered by oral gavage. Compound (b) was administered every 12 hours (twice daily or b.i.d.).
# The mice were divided in six treatment groups (n=8/group) representing the following treatment regimens: • (i) Vehicle 80%/20% PEG400/H2O (group 1), • (ii) 30 mg/kg/dose compound (b) b.i.d.: first administration 1 hour before infection (group 2), • (iii) 30 mg/kg/dose compound (b) b.i.d., first administration 1 day after infection (group 3), • (iv) 30 mg/kg/dose compound (b) b.i.d., first administration 2 days after infection (group 4), • (v) 30 mg/kg/dose compound (b) b.i.d., first administration 3 days after infection (group 5), • (vi) 30 mg/kg/dose compound (b) b.i.d., first administration 4 days after infection (group 6), • (vii) 30 mg/kg/dose compound (b) b.i.d., first administration 5 days after infection (group 7), • (viii) 30 mg/kg/dose compound (b) b.i.d., first administration 6 days after infection (group 8).
# Blood for viral RNA load detection was collected from mice in two alternating sub-groups. Each sub-group comprised half of the mice (n/2=4) from each of the treatment groups (i) to (viii). Blood was collected from a first sub-group at days 2, 4, 6, 8 and 12 p.i. and from a second sub-group at days 3, 5, 7, 9 and 14 p.i. At day 12 p.i., half of the mice in each treatment group (n=4/group) were sacrificed. The remaining mice in each treatment group (n=4/group) were sacrificed at day 14 p.i. (FIG. 17Y).
# [4] = first administration 4 days after infection (group 6)
# [5] = first administration 5 days after infection (group 7)
smiles,measurement,setting,value
COc1cc(NC(C(=O)c2c[nH]c3ccc(OC(F)(F)F)cc23)c2ccc(Cl)cc2OC)cc(S(C)(=O)=O)c1 (centres unmarked) [compound (a)],DENV RNA during the complete study period,[1],undetectable
same,"reduction in median peak DENV RNA compared with vehicle, significance",[2]; 0.01 mg/kg q.d. oral,No statistically significant reduction
same,"reduction in median peak DENV RNA compared with vehicle, significance",[2]; 0.024 mg/kg q.d. oral,No statistically significant reduction
same,onset of DENV RNA and peak RNA,[2]; 0.09 mg/kg q.d. oral,delayed onset of DENV RNA and peak RNA
same,median reduction in DENV peak RNA levels compared with vehicle control,[2]; 0.09 mg/kg q.d. oral,0.78 log10 GCE/mL
same,onset of DENV RNA and peak RNA,[2]; 0.18 mg/kg q.d. oral,delayed onset of DENV RNA and peak RNA
same,median reduction in DENV peak RNA levels compared with vehicle control,[2]; 0.18 mg/kg q.d. oral,1.91 log10 GCE/mL
same,DENV RNA throughout the study period (up to day 28),[2]; 0.93 mg/kg q.d. oral,No DENV RNA was detectable
same,median reduction in DENV peak RNA levels compared with vehicle control,[2]; 0.93 mg/kg q.d. oral,4.73 log10 GCE/mL
same,DENV RNA throughout the study period (up to day 28),[2]; 3 mg/kg q.d. oral,No DENV RNA was detectable
same,median reduction in DENV peak RNA levels compared with vehicle control,[2]; 3 mg/kg q.d. oral,6.76 log10 GCE/mL
COc1cc(NC(C(=O)N2CCc3ccc(OC(F)(F)F)cc32)c2ccc(Cl)cc2)cc(OCCCC(=O)O)c1 (centres unmarked) [compound (b)],viral RNA in the serum,[3]; first administration 1 hour before infection (group 2),undetectable levels
same,viral RNA in the serum,[3]; first administration 1 day after infection (group 3),undetectable levels
same,viral RNA in the serum,"[3]; first administration 2 days after infection (group 4), except two measurements",undetectable levels
same,viral load until day 9 post infection,[3]; first administration 3 days after infection (group 5),undetectable viral load
same,peak viral load reduction,[3]; [4],1.1 log10 copies/mL
same,time to undetectable viral load compared with vehicle treated mice,[3]; [4],undetectable viral load was reached earlier
same,peak viral load reduction,[3]; [5],0.7 log10 copies/mL
same,time to undetectable viral load compared with vehicle treated mice,[3]; [5],undetectable viral load was reached earlier
same,time to undetectable viral load compared with vehicle treated mice,[3]; first administration 6 days after infection (group 8),undetectable viral load was reached earlier
same,viral load at viral rebound,[3]; day 9 post infection,3.0 log10 copies/mL
same,viral load at viral rebound,[3]; day 14 post infection,4.7 log10 copies/mL
same,viral RNA detected,"[3]; start 3 days after infection (group 5), day 12 post infection",5.0 log10 copies/mL
